Here are results for 14 compounds from ChEMBL document CHEMBL4354789, “Recent advances in the discovery of indoleamine 2,3-dioxygenase 1 (IDO1) inhibitors” (Medchemcomm, 2019).

Series [1] addresses T1, Indoleamine 2,3-dioxygenase 1 (Homo sapiens, UniProt P14902). The series can be described thus: Inhibition of recombinant human IDO1 expressed in Escherichia coli assessed as reduction in formation of kynurenine using L-tryptophan as substrate by methylene blue staining based assay.
Series [2] can be described thus: Half life in human cancer patient at 2000 mg bid for 28 days by LC-MS method. The series is classed as ADME. To be noted: in vivo.
Series [3] is described as follows: Tmax in human cancer patient at 2000 mg bid for 28 days by LC-MS method. The series is classed as ADME. To be noted: in vivo.
The target of series [4] is T1, Indoleamine 2,3-dioxygenase 1. The series can be described thus: Inhibition of recombinant human His6-tagged IDO1 using L-tryptophan as substrate preincubated for 10 mins and measured after 30 mins.
The target is the same in series [5]. Kind of series: Inhibition of IDO1 in HEK293 cells assessed as reduction in L-kynurenine formation incubated for 48 hrs using L-tryptophan as substrate. The format is cell-based.
Series [6] has the same target. The series can be described thus: Inhibition of IDO1 in LPS-induced human THP1 cells.
For series [7] the target is unchanged. The series can be described thus: Inhibition of recombinant human N-terminal His-tagged IDO1 expressed in Escherichia coli using L-tryptophan as substrate incubated for 60 mins by HPLC analysis.
Series [8] deals with Plasmodium falciparum. Kind of series: Antimalarial activity against chloroquine-sensitive Plasmodium falciparum 3D7 infected in erythrocytes assessed as reduction in parasite growth preincubated for 48 hrs followed by addition of [3H]Hypoxanthine and measured after 24 hrs by radiometric method. The format is functional, organism-based.
Series [9] has as its target T2, Indoleamine 2,3-dioxygenase 1 (Mus musculus, UniProt P28776). Kind of series: Inhibition of mouse IDO1 expressed in Escherichia coli Rosetta (DE3) cells.
The test system of series [10] is A549. Kind of series: Cytotoxicity against human A549 cells assessed as growth inhibition after 72 hrs by MTT assay. The format is functional. The note with it: A549, 72 h.
The test system of series [11] is Jurkat. Kind of series: Cytotoxicity against human Jurkat cells assessed as growth inhibition after 72 hrs by MTT assay. The format is functional.
Series [12] in a line: Antitumour activity in mouse B16 cells pretreated with compound followed by tumour implantation assessed as reduction in tumour size after 4 days relative to control. More on the design: scale not given: the % may be the effect or the level left.
Series [13] addresses T1, Indoleamine 2,3-dioxygenase 1. The series can be described thus: Inhibition of human IDO1 expressed in COS1 cells assessed as reduction in N-formyl-kynurenine level incubated for 16 hrs. The format is cell-based.
The target in series [14] is T2, Indoleamine 2,3-dioxygenase 1. Kind of series: Inhibition of mouse IDO1 expressed in COS1 cells assessed as reduction in N-formyl-kynurenine level incubated for 16 hrs. The format is cell-based.
Series [15] addresses T1, Indoleamine 2,3-dioxygenase 1. Kind of series: Inhibition of recombinant human His6-tagged IDO1 expressed in Escherichia coli BL21DE3pLysS cells assessed as reduction in N-formyl-kynurenine level using L-tryptophan as substrate incubated for 60 mins.
For series [16], the system named is Homo sapiens. Kind of series: In vivo inhibition of IDO1 in human patient assessed as reduction in Serum kynurenine level at 100 to 200 mg, po qd for 2 weeks co-treated with nivo-lumab relative to control. The format is functional.
Series [17] relates to Homo sapiens. Kind of series: In vivo inhibition of IDO1 in human patient assessed as reduction in Serum kynurenine level at 25 to 200 mg, po qd for 2 weeks co-treated with nivo-lumab relative to control. The format is functional.
Series [18] concerns the target T1, Indoleamine 2,3-dioxygenase 1. Kind of series: Inhibition of recombinant human IDO1 expressed in COS1 cells by colorimetric method. The series is classed as cell-based.
Series [19] has the same target. The series can be described thus: Inhibition of IDO1 (unknown origin).
Series [20] has the same target. Kind of series: Inhibition of recombinant human IDO1 expressed in Escherichia coli assessed as reduction in formation of kynurenine using L-tryptophan as substrate measured after 30 mins.
The target is the same in series [21]. The series can be described thus: Inhibition of recombinant human IDO1 using L-tryptophan as substrate preincubated for 15 mins followed by substrate addition by methylene blue staining based spectrometric method.
For series [22] the target is unchanged. The series can be described thus: Inhibition of IDO1 in IFNgamma-indced human HeLa cells incubated for 48 hrs using L-tryptophan as substrate by colorimetric analysis. The format is cell-based.

T1 sequence (P14902 whole entry): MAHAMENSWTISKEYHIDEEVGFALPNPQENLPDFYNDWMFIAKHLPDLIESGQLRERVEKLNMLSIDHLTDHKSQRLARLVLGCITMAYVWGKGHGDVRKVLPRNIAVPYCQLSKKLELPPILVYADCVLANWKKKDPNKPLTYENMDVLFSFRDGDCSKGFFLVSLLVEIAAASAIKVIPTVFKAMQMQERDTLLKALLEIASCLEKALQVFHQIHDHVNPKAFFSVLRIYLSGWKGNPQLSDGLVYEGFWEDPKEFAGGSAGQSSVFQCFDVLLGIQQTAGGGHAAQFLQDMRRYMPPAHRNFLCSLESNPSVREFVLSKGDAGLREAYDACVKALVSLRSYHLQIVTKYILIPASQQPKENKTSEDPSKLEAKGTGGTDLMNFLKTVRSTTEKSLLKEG
T2 sequence (P28776 whole entry): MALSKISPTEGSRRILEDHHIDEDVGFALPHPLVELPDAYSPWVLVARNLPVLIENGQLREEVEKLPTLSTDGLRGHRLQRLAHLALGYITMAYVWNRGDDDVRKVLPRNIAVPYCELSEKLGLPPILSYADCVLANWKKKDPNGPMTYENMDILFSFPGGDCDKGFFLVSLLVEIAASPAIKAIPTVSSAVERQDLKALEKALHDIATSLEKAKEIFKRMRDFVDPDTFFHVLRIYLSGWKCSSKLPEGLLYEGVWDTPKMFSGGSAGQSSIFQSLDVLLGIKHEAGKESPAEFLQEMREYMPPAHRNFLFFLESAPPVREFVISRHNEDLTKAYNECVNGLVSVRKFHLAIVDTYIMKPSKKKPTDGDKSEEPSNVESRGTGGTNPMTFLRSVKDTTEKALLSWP

In the case of `C[C@@]12CC[C@H](O)CC1=C(O)C(=O)c1cc3c(cc12)C(=O)C1=C(C3=O)S(=O)(=O)CCN1`, in [1], the half-maximal inhibitory concentration (IC50) is 4 µM.
On to `Cn1cc(C[C@H](N)C(=O)O)c2ccccc21` (racemic) [(L)-1-METHYLTRYPTOPHAN], for which the half-life in [2] was 10.5 h. In addition, in [3], the time to peak (Tmax) amounted to 2.9 h.
On to `COc1nsc2c1C(=O)c1c(O)cccc1C2=O`, for which the half-inhibitory concentration (IC50) in series [4] is 0.0803 µM.
Take `Clc1ccc(Nc2cn[nH]n2)cc1`: the half-maximal inhibitory concentration (IC50) in [5] was determined as 0.067 µM.
In the case of `CC1(C)CCC[C@]2(C)[C@H]3CCC(C=O)C[C@H](O)[C@]3(C=O)CC[C@@H]12` (some centres not stated), the IC50 is 0.045 µM in series [6] and 7.7 µM in series [7].
As to `NOCc1cccc(Cl)c1`, in series [8], the IC50 worked out at 0.109 µM.
The compound `Nc1ccc2cc3cccc[n+]3cc2c1` came in with an IC50 in series [9] of 0.164 µM. Also, the values for the 50% growth inhibitory concentration (GI50) in series [10] and in series [11] were 86 µM and 62 µM, respectively.
As to `O[C@H](C[C@H]1c2c(F)cccc2-c2cncn21)[C@H]1CC[C@H](O)CC1` [NAVOXIMOD], the Activity in series [12] is reported as 95%.
With `CSC(=S)NCc1c[nH]c2ccc(Br)cc12`, the values for the EC50 in series [13] and in series [14] were 24 µM and 26.1 µM, respectively. Also, the Ki in series [15] was determined as 24.5 µM.
In the case of `C[C@@H](C(=O)Nc1ccc(Cl)cc1)[C@H]1CC[C@@H](c2ccnc3ccc(F)cc32)CC1`, the “inhibition (INH)” value in series [16] is >60%; in [17] it was >45%.
Turning to `CN1C(=O)C(Cc2c[nH]c3ccccc23)NC1=S` (configuration not stated) [NECROSTATIN], the 50% effective concentration (EC50) in [18] amounted to 12.8 µM.
As to `COc1cc(OC(=O)c2c(C)c(O)c(OC(=O)c3c(C)cc(O)c(C)c3O)c(C)c2OC)c(C)c(C)c1C(=O)O`, in series [19], the IC50 turned out to be 14.5 µM.
As to `COC1=CC(=O)c2c(oc(C)c2CO)C1=O`, the IC50 in [20] was 0.24 µM.
Take `CCOc1cc(C(=O)NC(=S)Nc2c(O)ccc3ccccc23)cc(OCC)c1OCC`: the IC50 in [21] and in series [22] was 18 µM throughout.
